Test results from patent publication US12447153B2, “HER2 mutation inhibitors” (Array BioPharma Inc., priority 2021, dated 2025).
pIC50: −log10 of the molar value.

What was measured:
[1] = target: ErbB2 WT (Homo sapiens (Human), UniProt P04626); experiment: ErbB Enzyme Assay (HTRF KinEASE-TK), Assay 2; format: biochemical
[2] = target: EGFR (Homo sapiens (Human), UniProt P00533); experiment: ErbB Enzyme Assay (HTRF KinEASE-TK), Assay 3; format: biochemical
[3] = target: ErbB2 with Exon 20 YVMA insertion (HER2-YVMA) (Homo sapiens (Human), UniProt P04626, INS775YVMA); experiment: Cellular Phosphorylation Assay, Assay 4 (constitutive ErbB2 phosphorylation, NIH 3T3 cells); format: cell-based
Sequence of ErbB2 with Exon 20 YVMA insertion (HER2-YVMA) (P04626 other isoform, or with tags, fused parts or gaps ins YVMA behind 775): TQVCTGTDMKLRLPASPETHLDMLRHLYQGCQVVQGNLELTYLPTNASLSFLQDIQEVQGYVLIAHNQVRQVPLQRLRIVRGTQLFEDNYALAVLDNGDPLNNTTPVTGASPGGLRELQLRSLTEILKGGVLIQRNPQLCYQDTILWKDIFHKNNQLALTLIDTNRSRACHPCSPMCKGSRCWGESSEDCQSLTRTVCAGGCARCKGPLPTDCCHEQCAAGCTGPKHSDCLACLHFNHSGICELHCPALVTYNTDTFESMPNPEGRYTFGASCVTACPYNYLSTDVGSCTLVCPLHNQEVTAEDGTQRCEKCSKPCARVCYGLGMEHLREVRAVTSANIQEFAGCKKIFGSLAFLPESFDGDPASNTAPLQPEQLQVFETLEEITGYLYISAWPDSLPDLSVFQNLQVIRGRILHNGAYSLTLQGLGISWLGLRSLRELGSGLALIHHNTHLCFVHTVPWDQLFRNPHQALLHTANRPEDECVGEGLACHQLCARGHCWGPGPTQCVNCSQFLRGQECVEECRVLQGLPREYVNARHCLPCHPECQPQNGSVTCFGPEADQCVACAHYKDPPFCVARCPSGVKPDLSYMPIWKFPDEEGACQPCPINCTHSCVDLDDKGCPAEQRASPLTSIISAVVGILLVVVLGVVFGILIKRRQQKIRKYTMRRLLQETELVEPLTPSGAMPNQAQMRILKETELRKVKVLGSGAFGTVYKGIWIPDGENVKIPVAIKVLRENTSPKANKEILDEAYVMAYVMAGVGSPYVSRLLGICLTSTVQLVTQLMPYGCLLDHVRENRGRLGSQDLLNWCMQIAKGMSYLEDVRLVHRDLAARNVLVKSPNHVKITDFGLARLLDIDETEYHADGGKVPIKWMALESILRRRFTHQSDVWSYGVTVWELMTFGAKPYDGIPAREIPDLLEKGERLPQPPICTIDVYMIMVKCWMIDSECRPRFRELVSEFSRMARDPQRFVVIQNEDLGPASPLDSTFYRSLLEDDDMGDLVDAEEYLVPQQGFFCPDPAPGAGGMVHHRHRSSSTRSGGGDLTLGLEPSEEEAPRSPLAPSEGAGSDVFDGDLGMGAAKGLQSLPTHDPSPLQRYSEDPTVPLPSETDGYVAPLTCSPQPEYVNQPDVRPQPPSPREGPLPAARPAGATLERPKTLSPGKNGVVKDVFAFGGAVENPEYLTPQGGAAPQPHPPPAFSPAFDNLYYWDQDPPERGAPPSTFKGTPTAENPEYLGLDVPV

[4] = target: EGFR wild type (EGFR WT) (Homo sapiens (Human), UniProt P00533); experiment: Cellular Phosphorylation Assay, Assay 5 (EGF-stimulated EGFR phosphorylation, NIH 3T3 cells); format: cell-based
Sequence of EGFR wild type (EGFR WT) (P00533 25-1210): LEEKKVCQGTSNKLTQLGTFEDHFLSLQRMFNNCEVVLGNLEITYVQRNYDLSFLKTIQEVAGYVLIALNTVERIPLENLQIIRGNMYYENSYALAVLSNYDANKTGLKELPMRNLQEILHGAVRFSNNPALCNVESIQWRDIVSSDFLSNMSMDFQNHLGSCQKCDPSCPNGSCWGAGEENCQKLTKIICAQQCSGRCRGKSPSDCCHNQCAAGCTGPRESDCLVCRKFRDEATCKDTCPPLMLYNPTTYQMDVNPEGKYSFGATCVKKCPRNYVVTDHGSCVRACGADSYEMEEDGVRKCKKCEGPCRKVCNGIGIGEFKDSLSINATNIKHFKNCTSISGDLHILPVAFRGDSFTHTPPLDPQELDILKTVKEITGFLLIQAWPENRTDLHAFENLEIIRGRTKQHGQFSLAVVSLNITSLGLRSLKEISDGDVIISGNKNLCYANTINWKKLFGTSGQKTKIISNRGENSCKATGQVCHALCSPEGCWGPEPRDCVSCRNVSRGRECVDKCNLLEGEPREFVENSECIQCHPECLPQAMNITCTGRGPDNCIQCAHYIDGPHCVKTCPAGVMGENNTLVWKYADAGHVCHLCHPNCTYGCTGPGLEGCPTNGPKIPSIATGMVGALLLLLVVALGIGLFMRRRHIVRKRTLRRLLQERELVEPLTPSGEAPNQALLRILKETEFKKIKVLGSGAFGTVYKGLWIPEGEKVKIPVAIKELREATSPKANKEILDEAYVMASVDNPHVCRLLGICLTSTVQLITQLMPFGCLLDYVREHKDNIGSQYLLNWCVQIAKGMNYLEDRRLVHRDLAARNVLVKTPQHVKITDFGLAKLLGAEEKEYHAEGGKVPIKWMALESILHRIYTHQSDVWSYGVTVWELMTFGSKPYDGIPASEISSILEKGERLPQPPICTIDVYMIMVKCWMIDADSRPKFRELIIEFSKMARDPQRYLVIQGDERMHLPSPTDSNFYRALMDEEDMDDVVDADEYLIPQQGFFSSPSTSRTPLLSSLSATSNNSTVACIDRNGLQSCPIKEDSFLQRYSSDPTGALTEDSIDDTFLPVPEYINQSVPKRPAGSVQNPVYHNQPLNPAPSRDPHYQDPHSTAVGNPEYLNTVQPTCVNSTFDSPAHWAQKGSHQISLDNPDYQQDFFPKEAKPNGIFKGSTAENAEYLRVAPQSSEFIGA

[5] = target: BCRP (Homo sapiens (Human), UniProt Q9UNQ0); experiment: BCRP MDCKII efflux assay (Assay 7); format: in vitro ADME; conditions: dog; efflux ratio Papp(B-A)/Papp(A-B), BCRP MDCKII cells; read-out: Assay 7 Pe Ratio
Sequence of BCRP (Q9UNQ0 whole entry): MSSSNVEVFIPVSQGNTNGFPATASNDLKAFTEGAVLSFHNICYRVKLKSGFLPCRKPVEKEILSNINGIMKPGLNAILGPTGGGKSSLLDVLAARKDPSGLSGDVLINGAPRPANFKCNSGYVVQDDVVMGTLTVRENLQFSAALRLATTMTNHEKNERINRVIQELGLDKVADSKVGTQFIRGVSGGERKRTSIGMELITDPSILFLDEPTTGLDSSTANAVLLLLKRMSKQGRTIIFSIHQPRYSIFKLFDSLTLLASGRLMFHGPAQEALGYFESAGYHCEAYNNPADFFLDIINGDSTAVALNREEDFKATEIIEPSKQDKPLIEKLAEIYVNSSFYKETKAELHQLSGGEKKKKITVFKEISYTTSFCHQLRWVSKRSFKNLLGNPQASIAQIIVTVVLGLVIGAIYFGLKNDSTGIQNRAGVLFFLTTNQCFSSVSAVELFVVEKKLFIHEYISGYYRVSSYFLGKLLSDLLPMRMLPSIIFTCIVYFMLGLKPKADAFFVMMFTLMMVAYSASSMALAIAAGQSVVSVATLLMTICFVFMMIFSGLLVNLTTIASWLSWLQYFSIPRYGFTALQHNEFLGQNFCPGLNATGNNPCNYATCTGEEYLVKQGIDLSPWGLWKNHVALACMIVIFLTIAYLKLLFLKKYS
Description: Assay conditions included with and without the BCRP-specific inhibitor, KO143, at a concentration of 0.3 μM to ascertain the contribution of BCRP to the efflux value of the test compound.
Final organic concentration in the assay was 1%.

[6] = EGF-stimulated EGFR WT phosphorylation
[7] = cellular ErbB2 YVMA phosphorylation
[8] = cellular EGFR WT phosphorylation, EGF-stimulated

Sequence of EGFR (P00533 25-1210): as the sequence (P00533 25-1210) above

Row | SMILES | pIC50 ([1]; ErbB2 WT enzyme) | pIC50 ([2]; EGFR enzyme) | pIC50 ([3]; ErbB2 YVMA phosphorylation) | pIC50 [4, 6] | efflux ratio at 2 h, 1 µM [5] | pIC50 ([1]; ErbB2 WT enzyme assay) | pIC50 ([2]; EGFR enzyme assay) | pIC50 [3, 7] | pIC50 [4, 8]
1 | C=CC(=O)N1CCC(Sc2ccc3ncnc(Nc4ccc(Oc5ccc6c(c5)ncn6C)c(C)c4)c3n2)CC1 [Example 59, 1-(4-((4-((3-methyl-4-((1-methyl-1H-benzo[d]imidazol-5-yl)oxy)phenyl)amino)pyrido[3,2-d]pyrimidin-6-yl)thio)piperidin-1-yl)prop-2-en-1-one] | 7.60 | 6.27 | 7.72 | ≤ 5.30 | 10.8 |  |  |  | 
2 | C=CC(=O)N1C[C@@H]2CC[C@H]1CN(c1ccc3ncnc(Nc4ccc(Oc5ccn6ncnc6c5)c(C)c4F)c3n1)C2 (racemic) [Example 327] |  |  |  |  | 5.4 | 7.89 | 5.93 | 8.03 | 5.46
3 | C=CC(=O)N1[C@H](C)CN(c2ccc3ncnc(Nc4ccc(Oc5ccc6c(c5)ncn6C)c(C)c4)c3n2)C[C@@H]1C [Example 106, 1-((2S,6R)-2,6-dimethyl-4-(4-((3-methyl-4-((1-methyl-1H-benzo[d]imidazol-5-yl)oxy)phenyl)amino)pyrido[3,2-d]pyrimidin-6-yl)piperazin-1-yl)prop-2-en-1-one] | 7.73 | 5.11 | 8.22 | ≤ 5.30 | 10.1 |  |  |  | 
4 | C=CC(=O)N1C[C@H]2C[C@@H]1CN2c1ccc2ncnc(Nc3ccc(Oc4ccc5c(c4)ncn5C)c(C)c3F)c2n1 [Example 83, 1-((1R,4R)-5-(4-((2-fluoro-3-methyl-4-((1-methyl-1H-benzo[d]imidazol-5-yl)oxy)phenyl)amino)pyrido[3,2-d]pyrimidin-6-yl)-2,5-diazabicyclo[2.2.1]heptan-2-yl)prop-2-en-1-one] | 7.09 | 5.25 | 8.02 | ≤ 5.30 | 6.3 |  |  |  | 
5 | C=CC(=O)N1CC[C@@H](c2ccc3ncnc(Nc4ccc(Oc5ccc6c(c5)ncn6C)c(C)c4F)c3n2)C1 (racemic) [Example 131, rac-(R)-1-(3-(4-((2-fluoro-3-methyl-4-((1-methyl-1H-benzo[d]imidazol-5-yl)oxy)phenyl)amino)pyrido[3,2-d]pyrimidin-6-yl)pyrrolidin-1-yl)prop-2-en-1-one] | 7.25 | 5.67 | 8.02 | 5.32 | 6.4 |  |  |  | 
6 | C=CC(=O)N1C[C@H](c2ccc3ncnc(Nc4ccc(Oc5ccn6ncnc6c5)c(C)c4F)c3n2)C[C@H]1COC (mixture of isomers) [Example 306] |  |  |  |  | 6.8 | 7.23 | 5.71 | 7.69 | 5.51
7 | C=CC(=O)N1CCCN(c2ccc3ncnc(Nc4ccc(Oc5ccc6c(c5)ncn6C)c(C)c4)c3n2)CC1 [Example 108, 1-(4-(4-((3-methyl-4-((1-methyl-1H-benzo[d]imidazol-5-yl)oxy)phenyl)amino)pyrido[3,2-d]pyrimidin-6-yl)-1,4-diazepan-1-yl)prop-2-en-1-one] | 7.53 | ≤ 5.00 | 8.13 | ≤ 5.30 | 30.1 |  |  |  | 
8 | C=CC(=O)N1C2CCC1CN(c1ccc3ncnc(Nc4ccc(Oc5ccn6ncnc6c5)c(C)c4F)c3n1)C2 [Example 444] |  |  |  |  | 9 | 7.92 | 6.42 | 8.23 | 6.45
9 | C=CC(=O)N1CCC[C@@H](c2ccc3ncnc(Nc4ccc(Oc5ccc6c(c5)ncn6C)c(C)c4)c3n2)C1 (racemic) [Example 35, 1-(3-(4-((3-methyl-4-((1-methyl-1H-benzo[d]imidazol-5-yl)oxy)phenyl)amino)pyrido[3,2-d]pyrimidin-6-yl)piperidin-1-yl)prop-2-en-1-one] | 8.21 | 5.85 | 7.98 | 5.56 | 2.7 |  |  |  | 
10 | C=CC(=O)N1C[C@H](c2ccc3ncnc(Nc4cc(C)c(Oc5ccc6c(c5)ncn6C)cc4F)c3n2)CCC1(C)C (racemic) [Example 141, rac-(R)-1-(5-(4-((2-fluoro-5-methyl-4-((1-methyl-1H-benzo[d]imidazol-5-yl)oxy)phenyl)amino)pyrido[3,2-d]pyrimidin-6-yl)-2,2-dimethylpiperidin-1-yl)prop-2-en-1-one] | 6.75 | ≤ 5.00 | 7.75 | ≤ 5.30 | 2.4 |  |  |  | 
11 | C=CC(=O)N1C[C@H]2C[C@@H]1CN2c1ccc2ncnc(Nc3ccc(Oc4ccn5ncnc5c4)c(C)c3F)c2n1 [Example 94, 1-((1R,4R)-5-(4-((4-([1,2,4]triazolo[1,5-a]pyridin-7-yloxy)-2-fluoro-3-methylphenyl)amino)pyrido[3,2-d]pyrimidin-6-yl)-2,5-diazabicyclo[2.2.1]heptan-2-yl)prop-2-en-1-one] | 6.77 | ≤ 5.00 | 7.51 | ≤ 5.30 | 6.8 |  |  |  | 
12 | C=CC(=O)N1[C@H](C)CN(c2ccc3ncnc(Nc4ccc(Oc5ccn6ncnc6c5)c(Cl)c4F)c3n2)C[C@@H]1C [Example 288] |  |  |  |  | 4.4 | 7.96 | 5.87 | 7.98 | 6.11
13 | C=CC(=O)N1CCN(c2ccc3ncnc(Nc4ccc(Oc5ccn6ncnc6c5)c(C)c4)c3n2)CC1(C)C [Example 77, 1-(4-(4-((4-([1,2,4]triazolo[1,5-a]pyridin-7-yloxy)-3-methylphenyl)amino)pyrido[3,2-d]pyrimidin-6-yl)-2,2-dimethylpiperazin-1-yl)prop-2-en-1-one] | 8.05 | 5.59 | 8.03 | 6.06 | 11.6 |  |  |  | 

Next, values leading:

Row | pIC50 ([1]; ErbB2 WT enzyme) | pIC50 ([2]; EGFR enzyme) | pIC50 ([3]; ErbB2 YVMA phosphorylation) | pIC50 [4, 6] | efflux ratio at 2 h, 1 µM [5] | pIC50 ([1]; ErbB2 WT enzyme assay) | pIC50 ([2]; EGFR enzyme assay) | pIC50 [3, 7] | pIC50 [4, 8] | SMILES
14 |  |  |  |  | 7.4 | 8.01 | 5.97 | 8.26 | 6.09 | C=CC(=O)N1CCN(c2ccc3ncnc(Nc4ccc(Oc5ccn6ncnc6c5)c(C)c4F)c3n2)C[C@@H]1COC [Example 362]
15 |  |  |  |  | 11.3 | 8.09 | 6.31 | 7.82 | 6.37 | C#CC1CN(c2ccc3ncnc(Nc4ccc(Oc5ccn6ncnc6c5)c(C)c4F)c3n2)CCN1C(=O)C=C (stereo not shown) [Example 322]
16 |  |  |  |  | 3.4 | 7.78 | 5.57 | 7.69 | ≤ 5.30 | C=CC(=O)N1C[C@H]2C[C@@H]1[C@H](c1ccc3ncnc(Nc4cc(C)c(Oc5ccc6c(c5)ncn6C)cc4F)c3n1)C2 [Example 374]
17 |  |  |  |  | 14.2 | 7.84 | 5.86 | 7.81 | 5.84 | C=CC(=O)N1CCN(c2ccc3ncnc(Nc4cc(Cl)c(Oc5ccn6ncnc6c5)cc4F)c3n2)C[C@@H]1COC [Example 346]
18 |  |  |  |  | 6.2 | 6.34 | 5.98 | 7.89 | ≤ 5.30 | C=CC(=O)N1CCN(c2ccc3ncnc(Nc4cc(Cl)c(Oc5cnc6c(c5)ncn6C)cc4F)c3n2)CC1(C)C [Example 452]
19 |  |  |  |  | 7.7 | 7.30 | 6.16 | 7.80 | 5.82 | C=CC(=O)N1C[C@H]2CC[C@@H]1CN2c1ccc2ncnc(Nc3ccc(Oc4ccn5ncnc5c4)c(Cl)c3F)c2n1 [Example 328]
20 |  |  |  |  | 6.4 | 7.18 | 5.54 | 7.51 | ≤ 5.30 | C=CC(=O)N(C)[C@H]1CCN(c2ccc3ncnc(Nc4cc(C)c(Oc5ccn6ncnc6c5)cc4F)c3n2)C1 [Example 351]
